# Laboratory results: US20260060960A1, “GAMMA-SECRETASE INHIBITORS FOR USE IN THE TREATMENT OF INHERITED EPIDERMOLYSIS BULLOSA” (OSPEDALE PEDIATRICO BAMBINO GESU', priority 2022, published 2026)
# d = 2'-deoxy (DNA); r = 2'-OH (RNA)
# Key:
# Type in all cases: cell-based, human
# JAG1 = assay: Immunoblotting of JAG1 after siRNA transfection (silencing efficiency); conditions: RDEB-FBs; for JAG1 expression levels (immunoblotting): 48 h after transfection, absence of TGF-β1, vs Scramble
# Source text: Transfection of short interfering RNAs targeting Jagged 1. Two candidate short interfering RNA (siRNA) sequences complementary to different regions of the human JAG1 mRNA, si-JAG1-1 and si-JAG1-2, were chosen to be functionally evaluated in the context of transfection experiments. siJAG1-1 and siJAG1-2 sequences are indicated below: 5′-GAAUGUGAGGCCAAACCUU[dT][dT]-3′ (SEQ ID NO:1) (si-JAG1-1, cod. SASI_Hs01_00100441) and 5′-CCUGUAACAUAGCCCGAAA[dT][dT]-3′ (SEQ ID NO:2) (si-JAG1-2, cod. SASI_Hs01_00100442). Both siRNAs were purchased from Merck (Merck, Darmstadt, Germany). Lipofectamine 2000 (Thermo Fisher Scientific, Waltham, MA, USA) was used to transfect siRNAs, following manufacturer's protocol. After 48 h, the silencing efficiency of the two candidate siRNAs was assessed by immunoblotting (IB) (FIG. 2). […] Accordingly, si-JAG1-2, throughout the text indicated as si-JAG1, was selected for all downstream silencing experiments. The MISSION® siRNA Universal Negative Control #1 (Merck) was used as negative control for siRNA transfections.
# (§1) Whole-cell lysates were obtained in radioimmunoprecipitation assay (RIPA) buffer (Sigma-Aldrich) supplemented with phosphatase- and protease inhibitors (Merck). Different amounts of protein lysates were run under reducing conditions by using 4-12% gradient precast gels (Thermo Fisher Scientific) or hand-casting polyacrylamide gels (4-8%), depending on the protein to be assayed. Amersham™ Protran® Premium nitrocellulose membranes (pore size 0.2 μm) (Merck) were immunoblotted with primary antibodies indicated in Table 3 and incubated with horseradish peroxidase-linked secondary antibodies.
# [1] = tested on: primary fibroblasts from RDEB patients (RDEB-FBs); assay: Collagen lattice contraction (CLC) assay; conditions: RDEB-FBs vs Scramble siRNA, with and without TGF-β1
# Protocol: RDEB-FBs (5×10^5 cells) were mixed in a collagen buffer and seeded into 12-well plates as previously described. After gelation, fibroblast-populated collagen lattices were detached from the wells and left floating. RDEB-FBs were treated with 20 μM of DAPT and PF-03804014 in DMEM containing 0.1% BSA, in the presence or absence of TGF-β1 at 2 ng/mL, as contraction booster. JAG1-silenced RDEB-FBs were embedded in collagen lattices 24 h after siRNA transfection. In both cases, images were acquired with ChemiDoc™ XRS+ System (Bio-Rad, Hercules, CA, USA) at the detachment of collagen lattices from the wells (time 0, TO) and after 48 h. Gel areas were measured by ImageJ software and photos at TO were used as references.
# α-SMA, TAGLN, CNN1, JAG1 = assay: Immunoblotting of myofibroblast/fibrotic markers in RDEB fibroblasts; conditions: RDEB-FBs vs Scramble, treated or not with TGF-β1
# Source text: as §1
# Detection was performed using Cytiva ECL™ Prime Western Blotting System (Merck) or SuperSignal West Femto (Thermo Fisher Scientific), depending on the protein to be assayed. Antibody against Notch1 (all forms; clone bTAN20) was obtained from the Developmental Studies Hybridoma Bank (DSHB) at the University of Iowa (DSHB, Iowa City, IA, USA). GAPDH (clone 14C10), Jagged1 (clone 28H8) and NOTCH1 intracellular domain (clone D3B8) were obtained from Cell Signaling (Cell Signaling Technology Inc., Beverly, MA, USA). Antibodies against TAGLN (clone #859112) and CNN1 (clone #836701) were from R&D Systems (R&D Systems, Inc. Minneapolis, MN, USA). Antibody against α-SMA (clone 1A4) was purchased from Sigma-Aldrich. Antibody against lamin B1 (LMNB1) was from Abcam (Cambridge, UK). […]
substance,measurement,setting,value
"si-JAG1-1: short interfering RNA targeting human JAG1 mRNA, 5′-GAAUGUGAGGCCAAACCUU[dT][dT]-3′ (SEQ ID NO:1) (sense GAAUGUGAGGCCAAACCUUTT; sugars from the 5' end r19 d2, backbone and methylation of C not given here)",JAG1 expression levels (immunoblotting),JAG1,able to reduce JAG1 expression levels
"si-JAG1-2: short interfering RNA targeting human JAG1 mRNA, 5′-CCUGUAACAUAGCCCGAAA[dT][dT]-3′ (SEQ ID NO:2); indicated as si-JAG1 throughout (sense CCUGUAACAUAGCCCGAAATT; sugars from the 5' end r19 d2, backbone and methylation of C not given here)",cell ability to contract type I collagen matrix after JAG1 silencing,[1],reduced
same,"protein levels of α-SMA, CNN1, TAGLN, JAG1, NOTCH FL after JAG1 silencing","α-SMA, TAGLN, CNN1, JAG1","significant reduction of α-SMA, CNN1, TAGLN, JAG1 and unprocessed NOTCH1 receptor"
same,JAG1 expression levels (immunoblotting),JAG1,able to reduce JAG1 expression levels
same,JAG1 protein levels (immunoblotting),"JAG1; presence of TGF-β1 2 ng/mL for 24 h, compared with si-JAG1-1",major reduction of JAG1 protein levels
